Laboratory results as given in patent US20210308207A1, “COMPOUNDS COMPRISING A LINKER FOR INCREASING TRANSCYCLOOCTENE STABILITY” (Tagworks Pharmaceuticals B.V., priority 2018, published 2021).
Where a SMILES comes first, the peptide text is derived from it. [ ]: non-standard residue; d: D form. The star is where a group is joined. Dolaproine = CO[C@@H]([C@@H]1CCCN1)[C@@H](C)C(=O)O; Dil = CC[C@H](C)[C@H](NC)[C@@H](CC(=O)O)OC; X1 = C[C@@H](N*)[C@@H](O)c1ccccc1; NMeV = CN[C@H](C(=O)O)C(C)C

Tested on: NIH:OVCAR-3 cells
Assay: Cell proliferation (MTT) assay, NIH:OVCAR-3
Assay type: cell-based, human
Conditions: NIH:OVCAR-3, 72 h
Procedure: (§1) The human colon cancer LS174T cell line was cultured in RPMI-1640 medium supplemented with 2 mM glutamine and 10% heat inactivated fetal calf serum. The human ovary carcinoma NIH:OVCAR-3 cell line was cultured in RPMI-1640 medium supplemented with 1 mM sodium pyruvate, 10 mM HEPES, 2 mM glutamine, 10 pg/mL bovine insulin and 20% fetal calf serum. The LS174T and NIH:OVCAR-3 cells were plated in 96-well plates at a 5000 cells/well density 24 h prior to the experiment. […] After 72 h incubation at 37° C., cell proliferation was assessed by an MTT assay. The proliferation assay was performed in triplicate.

SMILES | EC50 [nM]
CC[C@H](C)[C@@H]([C@@H](CC(=O)N1CCC[C@H]1[C@H](OC)[C@@H](C)C(=O)N[C@H](C)[C@@H](O)c1ccccc1)OC)N(C)C(=O)[C@@H](NC(=O)[C@@H](NC)C(C)C)C(C)C [MMAE, Monomethyl auristatin E] (H-[NMeV]V[Dil][Dolaproine]-X1) | 0.039

Tested on: LS174T cells
Assay: Cell proliferation (MTT) assay, LS174T
Assay type: cell-based, human
Conditions: 72 h
Procedure: as §1

SMILES | EC50 [nM]
CC[C@H](C)[C@@H]([C@@H](CC(=O)N1CCC[C@H]1[C@H](OC)[C@@H](C)C(=O)N[C@H](C)[C@@H](O)c1ccccc1)OC)N(C)C(=O)[C@@H](NC(=O)[C@@H](NC)C(C)C)C(C)C [MMAE, Monomethyl auristatin E] (H-[NMeV]V[Dil][Dolaproine]-X1) | 0.277

Tested on: AVP0458-TCO-MMAE
Assay: Tetrazine-induced MMAE release from diabody ADC (LC-SIM-MS, D8-MMAE standard)
Conditions: 37° C., 24 h, PBS/plasma (1/1), 10 equiv of tetrazine
Procedure: MMAE release from diabody ADC (AVP0458-TCO-MMAE) was determined by using a deuterated internal standard D8-MMAE. ADC (1.1×10^−10 moles bound MMAE) and D8-MMAE (1.1×10^−10 moles) and 10 equiv of tetrazine were incubated in 100 uL PBS/plasma (1/1) at 37° C. […] After vortexing, 10 min standing at −20° C. and centrifugation, the supernatants were separated from the protein pellets, diluted with five parts of PBS and the ratio MMAE/D8-MMAE was measured with LC-SIM-MS, affording the release yields (Table 3).

SMILES | release (%), induced MMAE release from AVP0458-TCO-MMAE [%]
Cc1nnc(-c2ccc(NC(=O)CCCC(=O)NCCOCCOCCOCCOCCOCCOCCOCCOCCOCCOCCOCCNC(=O)CN3CCN(CC(=O)O)CCN(CC(=O)O)CCN(CC(=O)O)CC3)cn2)nn1 [Compound 3.4, 2,2′,2″-(10-(44-((6-(6-methyl-1,2,4,5-tetrazin-3-yl)pyridin-3-yl)amino)-2,40,44-trioxo-6,9,12,15,18,21,24,27,30,33,36-undecaoxa-3,39-diazatetratetracontyl)-1,4,7,10-tetraazacyclododecane-1,4,7-triyl)triacetic acid] | 47 ± 0.3
Cc1nnc(-c2nccc(CNC(=O)CCCC(=O)O)n2)nn1 [Compound 4.27] | 66 ± 0.5
Cc1nnc(-c2cnccn2)nn1 [Compound 4.18] | 55 ± 0.8
Cc1nnc(-c2nccc(CNC(=O)CN(CCN(CC(=O)O)CC(=O)O)CC(=O)O)n2)nn1 [Compound 4.26] | 59 ± 0.6
Cc1nnc(-c2ccncn2)nn1 [Compound 4.19] | 60 ± 0.1
CN(CCc1nnc(-c2ncccn2)nn1)C(=O)CCCC(=O)NC(CO)(CO)CO [Compound 4.15] | 55 ± 0.4
Cc1nnc(-c2nccnc2C)nn1 [Compound 4.20] | 59 ± 0.3
Cc1nnc(-c2nccc(C(=O)O)n2)nn1 [Compound 4.23] | 69 ± 0.5
Cc1nnc(C)nn1 [Compound 2.1, 3,6-dimethyl-1,2,4,5-tetrazine] | 95 ± 0.4
Cc1nnc(-c2ncccn2)nn1 [Compound 4.1, 3-methyl-6-(pyrimidin-2-yl)-1,2,4,5-tetrazine] | 69 ± 0.0
Cc1nnc(-c2nccc(CNC(=O)OC(C)(C)C)n2)nn1 [Compound 4.17] | 70 ± 0.1
